How the values were obtained:
Assay type in all cases: cell-based
peripheral blood cells = assay: Cytokine production by human peripheral blood cells (MSD panel)
Procedure: In order to examine the biological activity of IgX, cytokine production from human peripheral whole blood samples incubated with IgX was measured. Peripheral whole blood samples from three different donors (#66, 67, and 85) were obtained with appropriate informed consent and incubated with concentrations of IgX ranging from 0 to 200 ug/ml.
Protein A purified IgX was prepared from placental sample BC, brought to 0.05 M phosphate, 0.15 M NaCl buffer, pH 7.4, treated with an endotoxin affinity column (ActiClean Etox™ from Sterogene, Carlsbad, Calif.) according to the supplier's instructions, and then sent to IBT Bioservices (Gaithersburg, Md.) for human peripheral blood testing. […] All peripheral blood cells were suspended in RPMI-1640 media. Various concentrations of IgX were incubated with peripheral blood cells from donor D66 for 18 hours, and then the samples were stimulated with 1 ug/ml of PHA, 50 ng/ml of LPS, or 10 ng/ml of IFNγ (200 U/ml) for four hours. Samples of culture supernatant fluids were tested in duplicate for the presence of IL-2, IL-4, IL-6, IL-10, IL-12, and TNFα using a Meso Scale Discovery (MSD, Gaithersburg, Md.) panel.
PeptideX1 and PeptideX2 were incubated with peripheral blood cells from donor D67 as described above and tested in duplicate for IL-6 activity. […]

E. coli = E. coli growth (CFU) with human peripheral blood leukocytes; details: E. coli with WBCs with PeptideX2, 10 hours
Procedure: Human peripheral blood leukocytes (WBCs) were obtained from healthy donors with informed consent. Three test groups were inoculated with E. coli and incubated for 10 hours. The three groups were E. coli with serum alone, E. coli with WBCs, and E. coli with WBCs with PeptideX2. Samples were taken at 0, 2, 4, 6 and 10 hours and plated for colony forming units (CFUs). […] In a separate but similar experiment, nine test groups (E. coli with serum alone, E. coli with WBCs, and E. coli with WBCs with PeptideX2 at each of seven indicated concentrations, see FIG. 12) were incubated over a time course of three hours, with quantification of bacterial CFU performed at times 0, 1.5 and 3 hours (FIG. 12).

human TLR2 = target: T1, human TLR2 (Homo sapiens, UniProt O60603); assay: NF-κB-driven SEAP reporter assay in TLR-transfected HEK293 cells
T1 construct: host or cells: HEK293
Procedure: (§1) PeptideX2 (200 μg/mL) was tested for its effects on human TLR-driven NF-κB activation in HEK293 cell lines transfected with human TLR2, 3, 4, 5, 7, 8 or 9 (InvivoGen, San Diego, Calif.). HEK293 cells (50,000 to 75,000 cells/well) expressing the indicated TLR were plated in wells of a 96-well plate (200 μl total volume) containing either with no additions, PeptideX2 (in 20 μl buffer), or buffer only (20 μl) as a vehicle control. All cells contained a reporter construct having coding sequence for Secreted Embryonic Alkaline Phosphatase (SEAP) under the control of a promoter inducible by the transcription of NF-κB, and were incubated in media containing a detectable SEAP expression indicator (InvivoGen, San Diego, Calif.). After 16-20 hours incubation at 37° C., the optical density of culture supernatants was read at 650 nm on a Molecular Devices SpectraMax™ 340PC absorbance detector.
(§2) The relative potency of PeptideX2 induction of human TLR-mediated NF-κB activation was compared to the effects of known PAMP ligands that have activity as agonists for each of the human TLRs TLR2, TLR3, TLR4, TLR5, TLR7, TLR8 and TLR9, using the NF-κB-driven SEAP reporter assay (InvivoGen, San Diego, Calif.). The known TLR agonists were as follows: for TLR2, heat killed Listeria monocytogenes (HKLM) at 10^8 cells/ml; for TLR3, poly(I:C) at 1 ug/ml; for TLR4, E. coli K12 LPS at 100 ng/ml; for TLR5, S. typhimurium flagellin at 100 ng/ml; for TLR7, CL097 at 1 ug/ml; for TLR8, CL075 at 1 ug/ml; for TLR9, CpG ODN 2006 at 100 ng/ml.

human TLR4 = target: T2, human TLR4 (Homo sapiens, UniProt O00206); assay: as above; details: PeptideX2 200 μg/mL, 16-20 hours
T2 construct: host or cells: HEK293
Procedure: as §1, §2

murine TLR2 = target: T3, murine TLR2 (Mus musculus, UniProt Q9QUN7); assay: as above; details: PeptideX2 200 μg/mL
T3 construct: host or cells: HEK293
Procedure: as §1
(§3) PeptideX2 (200 μg/mL) was also tested for its effects on murine TLR-driven NE-κB activation in HEK293 cell lines transfected with murine TLR2, 3, 4, 5, 7, 8 or 9 (InvivoGen, San Diego, Calif.) essentially as described above.

[1] = test system: murine TLR3, 5, 7, 8 or 9; assay: as above; details: PeptideX2 200 μg/mL
Procedure: as §1, §3

murine TLR4 = target: T4, murine TLR4 (Mus musculus, UniProt Q9QUK6); assay: as above; details: PeptideX2 200 μg/mL
T4 construct: host or cells: HEK293
T4 sequence (Q9QUK6 26-835): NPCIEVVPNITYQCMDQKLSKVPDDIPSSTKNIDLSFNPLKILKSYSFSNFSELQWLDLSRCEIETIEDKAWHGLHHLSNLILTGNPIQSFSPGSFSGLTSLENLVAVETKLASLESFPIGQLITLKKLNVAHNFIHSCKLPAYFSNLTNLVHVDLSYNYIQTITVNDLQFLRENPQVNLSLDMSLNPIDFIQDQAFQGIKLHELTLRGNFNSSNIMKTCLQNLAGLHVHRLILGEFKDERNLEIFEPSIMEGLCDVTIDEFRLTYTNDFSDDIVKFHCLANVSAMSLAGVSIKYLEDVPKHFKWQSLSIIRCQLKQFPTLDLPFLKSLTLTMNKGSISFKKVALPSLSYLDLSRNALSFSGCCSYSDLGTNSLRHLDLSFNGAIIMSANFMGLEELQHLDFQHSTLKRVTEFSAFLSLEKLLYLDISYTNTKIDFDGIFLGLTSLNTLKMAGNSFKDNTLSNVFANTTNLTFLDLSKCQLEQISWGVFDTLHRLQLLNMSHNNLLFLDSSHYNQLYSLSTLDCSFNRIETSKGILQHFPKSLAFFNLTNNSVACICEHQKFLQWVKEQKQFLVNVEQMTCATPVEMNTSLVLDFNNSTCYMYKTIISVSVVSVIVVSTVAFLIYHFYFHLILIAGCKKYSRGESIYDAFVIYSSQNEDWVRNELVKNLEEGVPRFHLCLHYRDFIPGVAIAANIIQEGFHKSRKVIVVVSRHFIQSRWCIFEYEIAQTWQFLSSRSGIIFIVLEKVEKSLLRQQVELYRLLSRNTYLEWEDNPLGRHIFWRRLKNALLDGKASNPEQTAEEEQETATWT
T4 sequence (Q9JHF9 19-160 partner): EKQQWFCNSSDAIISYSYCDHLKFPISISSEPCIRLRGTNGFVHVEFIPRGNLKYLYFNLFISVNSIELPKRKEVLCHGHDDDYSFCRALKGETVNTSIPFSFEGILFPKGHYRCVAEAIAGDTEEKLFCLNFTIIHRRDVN
Procedure: as §1, §3

Staphylococcus aureus = assay: S. aureus growth (CFU) with human peripheral blood white cells
Procedure: (§4) Staphylococcus aureus bacteria were incubated with human peripheral blood white cells (WBC) in the absence or presence of PeptideX2 (0, 10, and 100 μg/ml), and the effects on S. aureus growth were assessed by serial dilutions, microbiological plating and determination by counting colony forming units (CFU) in culture samples withdrawn after incubation times of 0, 1.5 and 3 hours. The WBC-to-Staph ratio was 100:1, using WBC at 4×10^6/ml and Staph 4×10^4 CFU/ml.

[2] = test system: human peripheral blood white cells (WBC); assay: TNFα production by WBC during short-term incubation with S. aureus (ELISA); details: for TNFα concentration: 3-hour culture
Procedure: as §4, with “CFU/ml. Supernatant fluids from the same experimental cultures were also tested for TNFα production by WBC during the short-term incubations with S. aureus. […] In this three-hour timeframe, however, the presence of PeptideX2 at these concentrations had no effect on WBC bacteriocidal activity against S. aureus.” for “CFU/ml.”

T1 sequence (O60603 21-784): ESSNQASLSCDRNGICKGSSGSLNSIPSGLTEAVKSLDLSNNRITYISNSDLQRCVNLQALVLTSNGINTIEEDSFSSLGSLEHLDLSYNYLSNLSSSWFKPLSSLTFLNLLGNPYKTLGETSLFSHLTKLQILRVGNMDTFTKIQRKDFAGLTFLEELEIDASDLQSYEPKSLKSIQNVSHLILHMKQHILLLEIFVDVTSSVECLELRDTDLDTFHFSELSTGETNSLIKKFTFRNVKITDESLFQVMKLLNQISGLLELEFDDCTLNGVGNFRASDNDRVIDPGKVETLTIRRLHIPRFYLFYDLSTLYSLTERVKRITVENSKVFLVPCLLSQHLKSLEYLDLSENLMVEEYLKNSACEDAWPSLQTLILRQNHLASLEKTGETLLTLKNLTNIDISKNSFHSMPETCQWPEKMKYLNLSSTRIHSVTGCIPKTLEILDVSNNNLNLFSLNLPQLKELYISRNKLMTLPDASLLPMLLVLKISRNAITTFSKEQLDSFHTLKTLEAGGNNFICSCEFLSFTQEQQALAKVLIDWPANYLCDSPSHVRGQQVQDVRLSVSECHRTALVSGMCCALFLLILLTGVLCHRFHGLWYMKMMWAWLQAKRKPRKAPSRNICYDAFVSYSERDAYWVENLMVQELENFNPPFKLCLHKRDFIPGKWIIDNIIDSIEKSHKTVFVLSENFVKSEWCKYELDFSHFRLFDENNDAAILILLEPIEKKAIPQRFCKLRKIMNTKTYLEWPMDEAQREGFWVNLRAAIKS
T2 sequence (O00206 24-839): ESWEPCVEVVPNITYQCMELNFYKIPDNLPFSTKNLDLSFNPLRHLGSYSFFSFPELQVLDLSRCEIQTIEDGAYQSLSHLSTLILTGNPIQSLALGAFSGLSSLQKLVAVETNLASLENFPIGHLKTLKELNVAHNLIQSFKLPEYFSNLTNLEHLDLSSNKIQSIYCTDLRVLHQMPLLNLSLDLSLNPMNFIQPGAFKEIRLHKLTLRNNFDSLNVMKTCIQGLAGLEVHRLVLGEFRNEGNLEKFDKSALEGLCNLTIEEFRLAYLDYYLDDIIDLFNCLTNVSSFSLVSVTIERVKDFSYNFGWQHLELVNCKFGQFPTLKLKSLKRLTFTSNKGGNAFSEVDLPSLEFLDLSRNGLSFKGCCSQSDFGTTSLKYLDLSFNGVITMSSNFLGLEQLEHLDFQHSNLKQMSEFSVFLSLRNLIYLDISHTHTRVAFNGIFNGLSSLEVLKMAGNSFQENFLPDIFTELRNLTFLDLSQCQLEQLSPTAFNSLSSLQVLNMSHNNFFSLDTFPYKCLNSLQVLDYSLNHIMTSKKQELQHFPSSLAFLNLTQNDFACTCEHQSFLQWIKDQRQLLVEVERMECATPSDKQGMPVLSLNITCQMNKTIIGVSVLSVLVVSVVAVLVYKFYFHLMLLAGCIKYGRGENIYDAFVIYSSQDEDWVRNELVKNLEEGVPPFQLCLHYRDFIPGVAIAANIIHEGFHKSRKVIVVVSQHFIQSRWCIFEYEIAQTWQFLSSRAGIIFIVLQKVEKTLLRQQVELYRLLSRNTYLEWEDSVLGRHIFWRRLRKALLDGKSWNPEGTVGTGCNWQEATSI
T2 sequence (Q9Y6Y9 17-160 partner limits assumed): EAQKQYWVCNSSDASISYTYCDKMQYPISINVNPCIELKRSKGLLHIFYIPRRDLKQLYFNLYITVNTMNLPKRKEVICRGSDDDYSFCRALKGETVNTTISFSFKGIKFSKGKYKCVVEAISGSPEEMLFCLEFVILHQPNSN
T3 sequence (Q9QUN7 25-784): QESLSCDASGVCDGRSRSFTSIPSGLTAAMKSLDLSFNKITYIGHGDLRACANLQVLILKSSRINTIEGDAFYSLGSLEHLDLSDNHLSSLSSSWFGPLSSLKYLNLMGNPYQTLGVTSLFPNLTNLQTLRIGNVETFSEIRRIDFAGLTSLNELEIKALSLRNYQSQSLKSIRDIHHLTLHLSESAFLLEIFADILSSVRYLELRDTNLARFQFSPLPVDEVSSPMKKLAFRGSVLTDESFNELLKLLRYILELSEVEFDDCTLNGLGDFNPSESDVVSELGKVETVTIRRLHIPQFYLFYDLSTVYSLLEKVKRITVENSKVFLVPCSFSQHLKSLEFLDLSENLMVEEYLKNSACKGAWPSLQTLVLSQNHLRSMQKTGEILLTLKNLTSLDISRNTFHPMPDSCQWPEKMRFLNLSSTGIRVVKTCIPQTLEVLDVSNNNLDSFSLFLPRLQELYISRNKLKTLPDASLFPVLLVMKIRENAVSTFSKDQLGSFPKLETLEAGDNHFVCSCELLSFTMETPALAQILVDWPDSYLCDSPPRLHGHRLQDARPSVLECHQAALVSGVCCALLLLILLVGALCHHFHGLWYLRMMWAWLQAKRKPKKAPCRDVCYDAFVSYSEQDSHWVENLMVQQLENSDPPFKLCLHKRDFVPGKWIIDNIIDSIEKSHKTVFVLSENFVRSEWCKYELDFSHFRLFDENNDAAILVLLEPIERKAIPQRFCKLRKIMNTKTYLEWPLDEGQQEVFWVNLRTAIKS

KSIAYLQMNSLK (Peptide fragment) [PeptideX2, dodecapeptide derived from the heavy chain hypervariable region of IgX, residues 97-108 of AAH90938.1]
IL-6 production (peripheral blood cells; cells from donor #67, compared to peptideX1): significantly greater IL-6 production compared to peptideX1 | IL-6 production (peripheral blood cells; cells from donor #85, PeptideX2 0, 10, 100 or 200 ug/ml): enhanced production | E. coli CFUs (E. coli): rapid rise in CFUs | TLR2-mediated response as level of the response to HKLM (human TLR2; PeptideX2 200 μg/mL vs HKLM at 10^8 cells/ml): 14% | NF-κB activation via TLR2 (human TLR2; PeptideX2 200 μg/mL, 16-20 hours): activation of NF-κB via TLR2 and TLR4 | NF-κB activation via TLR4 (human TLR4): activation of NF-κB via TLR2 and TLR4 | NF-κB-driven SEAP expression through murine TLR2 (murine TLR2): induction | NF-κB-driven SEAP expression through the other murine TLRs tested [1]: not through the other TLRs tested | NF-κB-driven SEAP expression through murine TLR4 (murine TLR4): induction | potency via murine TLR4 relative to murine TLR2 (murine TLR4): greater potency in activating via murine TLR4 relative to murine TLR2 | effect on WBC bacteriocidal activity against S. aureus (Staphylococcus aureus; PeptideX2 10 and 100 ug/ml, three-hour timeframe): no effect | S. aureus growth (Staphylococcus aureus; WBC present, up to three hours, presence or absence of PeptideX2 (0, 10, 100 μg/ml)): no S. aureus growth was detected | reduction in TNFα production ([2]; 100 ug/ml PeptideX2, 3-hour timepoint): 65% | TNFα concentration ([2]; WBC plus PeptideX2 at 10 ug/ml): 160 pg/mL | TNFα concentration ([2]; WBC plus PeptideX2 at 100 ug/ml): 76 pg/mL | TNFα concentration ([2]; serum plus PeptideX2 at 100 ug/ml (no WBC)): 0.05 pg/mL | reduction in TNFα production ([2]; PeptideX2 at 10 ug/ml, 3-hour timepoint): 27%

Reference: patent US10365275B2, “Immunologically active polypeptide” (Institute of Arthritis Research, LLC, priority 2013, dated 2019)
